Here are results for 28 molecules from patent publication US9549558B2, “Herbicidal azines” (BASF SE, priority 2012, dated 2017).

Common to all, as to format: in vivo
For assay [1], the system named is AMARE (Amaranthus retroflexus). Nature of the assay: greenhouse pre-emergence herbicidal test. From the text:
(§1) The seeds of the test plants were sown separately for each species. For the pre-emergence treatment, the active ingredients, which had been suspended or emulsified in water, were applied directly after sowing by means of finely distributing nozzles. The containers were irrigated gently to promote germination and growth and subsequently covered with transparent plastic hoods until the plants had rooted. This cover caused uniform germination of the test plants, unless this had been impaired by the active ingredients. Depending on the species, the plants were kept at 10-25° C. or 20-35° C., respectively. The test period extended over 2 to 4 weeks. During this time, the plants were tended, and their response to the individual treatments was evaluated. […] A moderate herbicidal activity is given at values of at least 60, a good herbicidal activity is given at values of at least 70, and a very good herbicidal activity is given at values of at least 85. The plants used in the greenhouse experiments were of the following species: [table]

The subject of assay [2] is AMARE (Amaranthus retroflexus). Kind of assay: greenhouse post-emergence herbicidal test. Conditions: 0.031 kg/ha. From the text:
(§2) The culture containers used were plastic flowerpots containing loamy sand with approximately 3.0% of humus as the substrate. The seeds of the test plants were sown separately for each species.
For the post-emergence treatment, the test plants were first grown to a height of 3 to 15 cm, depending on the plant habit, and only then treated with the active ingredients which had been suspended or emulsified in water. For this purpose, the test plants were either sown directly and grown in the same containers, or they were first grown separately as seedlings and transplanted into the test containers a few days prior to treatment.
(§3) Depending on the species, the plants were kept at 10-25° C. or 20-35° C., respectively.
(§4) The test period extended over 2 to 4 weeks. During this time, the plants were tended, and their response to the individual treatments was evaluated.
(§5) Evaluation was carried out using a scale from 0 to 100. 100 means no emergence of the plants, or complete destruction of at least the aerial moieties, and 0 means no damage, or normal course of growth. A moderate herbicidal activity is given at values of at least 60, a good herbicidal activity is given at values of at least 70, and a very good herbicidal activity is given at values of at least 85.
(§6) The plants used in the greenhouse experiments were of the following species: […]

In assay [3] the test system is CAPBP (Capsella bursa-pastoris). Kind of assay: greenhouse pre-emergence herbicidal test. Particulars: 0.125 kg/ha, CAPBP.
Text: as §2
(§7) For the pre-emergence treatment, the active ingredients, which had been suspended or emulsified in water, were applied directly after sowing by means of finely distributing nozzles. The containers were irrigated gently to promote germination and growth and subsequently covered with transparent plastic hoods until the plants had rooted. This cover caused uniform germination of the test plants, unless this had been impaired by the active ingredients.
as §3, §4, §5, §6

Another assay deals with STEME (Stellaria media). Kind of assay: greenhouse pre-emergence herbicidal test.
Text: as §2, §7, §3, §4, §5, §6

The subject of assay [4] is ABUTH (Abutilon theophrasti). Kind of assay: greenhouse pre-emergence herbicidal test.
Text: as §1

The test system of assay [5] is ECHCG (Echinocloa crus-galli). Nature of the assay: greenhouse pre-emergence herbicidal test.
Text: as §2, §7, §3, §4, §5, §6

For `CCN(c1nc(N)nc(C(C)(C)F)n1)c1c(F)c(F)c(F)c(F)c1F` [Example 308], the herbicidal activity result in assay [1] (125 g/ha) is reported as “very good (a very good herbicidal activity is given at values of at least 85)”.
For the molecule `CC(C)(F)c1nc(N)nc(Nc2c(F)cccc2Br)n1` [Example 31], the herbicidal activity result in assay [2] was “very good (a very good herbicidal activity is given at values of at least 85)”.
Consider `CC(C)(F)c1nc(N)nc(Nc2c(Br)cc(F)c(F)c2F)n1` [Example 34], for which the herbicidal activity result (in assay [3]; in the assay on STEME (Stellaria media) (0.125 kg/ha)) was “very good (a very good herbicidal activity is given at values of at least 85)” throughout.
`CCC(C)c1nc(N)nc(Nc2c(F)c(F)cc(F)c2F)n1` (centres unmarked) [Example 193]: the herbicidal activity entry in assay [4] (500 g/ha), in assay [1] (500 g/ha) and in assay [5] (500 g/ha) was “very good (a very good herbicidal activity is given at values of at least 85)” each time.
For `Cc1cc(C)cc(Oc2cccc(F)c2Nc2nc(N)nc(C(C)(C)F)n2)c1` [Example 191], the herbicidal activity entry in assay [4] (1000 g/ha), in assay [1] (1000 g/ha) and in assay [5] (1000 g/ha) was “very good (a very good herbicidal activity is given at values of at least 85)” each time.
Turning to `Nc1nc(CC(F)(F)F)nc(Nc2c(F)c(F)c(F)c(F)c2F)n1` [Example 72], the herbicidal activity entry in assay [4] (125 g/ha) and in assay [1] (125 g/ha) was “very good (a very good herbicidal activity is given at values of at least 85)” each time.
Take `CC(C)(C)c1nc(N)nc(Nc2c(F)cccc2C#N)n1` [Example 135]: the herbicidal activity result in assay [4] (500 g/ha), in assay [1] (500 g/ha) and in assay [5] (500 g/ha) was “very good (a very good herbicidal activity is given at values of at least 85)” each time.
With `Cc1cccc(F)c1Nc1nc(N)nc(C(C)(C)F)n1` [Example 41], the herbicidal activity entry in assay [1] (0.031 kg/ha) is “good (a good herbicidal activity is given at values of at least 70)”.
`CC(C#N)c1nc(N)nc(Nc2c(F)c(F)c(F)c(F)c2F)n1` (centres unmarked) [Example 5]: the herbicidal activity result in assay [1] (0.125 kg/ha) is “very good (a very good herbicidal activity is given at values of at least 85)”.
Regarding `CCC(C#N)(CC)c1nc(N)nc(Nc2c(F)c(F)cc(F)c2F)n1` [Example 219], the herbicidal activity entry in assay [4] (250 g/ha) and in assay [1] (250 g/ha) was “very good (a very good herbicidal activity is given at values of at least 85)” in each case.
Consider `N#Cc1cccc(F)c1Nc1nc(N)nc(C(F)F)n1` [Example 149], for which, in the assay with STEME (Stellaria media) (250 g/ha), the herbicidal activity result was “good (a good herbicidal activity is given at values of at least 70)”.
For the molecule `COc1cccc(OC)c1Nc1nc(N)nc(C(C)(C)F)n1` [Example 47], the herbicidal activity entry in assay [1] (0.125 kg/ha) is recorded as “very good (a very good herbicidal activity is given at values of at least 85)”.
On to `COc1ccc(F)c(Nc2nc(N)nc(C(C)(C)F)n2)c1F` [Example 43], for which the herbicidal activity result in assay [2] was “good (a good herbicidal activity is given at values of at least 70)”.
As to `Nc1nc(Nc2c(F)ccc(F)c2F)nc(C(F)F)n1` [Example 123], the herbicidal activity entry in assay [4] (250 g/ha) is listed as “good (a good herbicidal activity is given at values of at least 70)”; in assay [1] (250 g/ha) it was “very good (a very good herbicidal activity is given at values of at least 85)”; in assay [5] (250 g/ha) it was “good (a good herbicidal activity is given at values of at least 70)”.
Consider `COC(C)c1nc(N)nc(Nc2c(F)ccc(F)c2F)n1` (centres unmarked) [Example 228], for which the herbicidal activity entry in assay [4] (500 g/ha) and in assay [1] (500 g/ha) was “very good (a very good herbicidal activity is given at values of at least 85)” throughout.
For `COc1cccc(F)c1Nc1nc(N)nc(C(C)(C)F)n1` [Example 42], in assay [1] (0.0625 kg/ha), the herbicidal activity result is recorded as “very good (a very good herbicidal activity is given at values of at least 85)”.
As for `CC(C)c1nc(N)nc(Nc2c(F)ccc(Cl)c2F)n1` [Example 67], the herbicidal activity entry is “good (a good herbicidal activity is given at values of at least 70)” in assay [4] (125 g/ha) and “very good (a very good herbicidal activity is given at values of at least 85)” in assay [1] (125 g/ha).
As for `CC(C)(F)c1nc(N)nc(Nc2c(F)ccc([N+](=O)[O-])c2F)n1` [Example 189], the herbicidal activity entry in assay [4] (507 g/ha), in assay [1] (507 g/ha) and in assay [5] (507 g/ha) was “very good (a very good herbicidal activity is given at values of at least 85)” throughout.
As to `Nc1nc(C2CCCC2)nc(N(C(=O)C2CCCC2)c2c(F)ccc(F)c2F)n1` [Example 302], the figures for the herbicidal activity entry in assay [4] (1000 g/ha), in assay [1] (1000 g/ha) and in assay [5] (1000 g/ha) were “good (a good herbicidal activity is given at values of at least 70)”, “very good (a very good herbicidal activity is given at values of at least 85)” and “very good (a very good herbicidal activity is given at values of at least 85)”, respectively.
`Nc1nc(Nc2c(F)c(F)c(F)c(F)c2F)nc(C(F)F)n1` [Example 121]: the herbicidal activity result in assay [4] (250 g/ha) and in assay [1] (250 g/ha) was “very good (a very good herbicidal activity is given at values of at least 85)” throughout.
Take `CCCC(F)(CC)c1nc(N)nc(Nc2c(F)c(F)c(F)c(F)c2F)n1` (centres unmarked) [Example 50]: the herbicidal activity result (in assay [3]; with STEME (Stellaria media) (0.125 kg/ha)) was “very good (a very good herbicidal activity is given at values of at least 85)” throughout.
Turning to `CC(F)c1nc(N)nc(Nc2c(F)c(F)c(Br)c(F)c2F)n1` (centres unmarked) [Example 180], the herbicidal activity entry in assay [4] (250 g/ha) and in assay [1] (250 g/ha) was “very good (a very good herbicidal activity is given at values of at least 85)” in each case.
For `CC=C(C)c1nc(N)nc(Nc2c(F)c(F)cc(F)c2F)n1` [Example 206], in assay [1] (500 g/ha), the herbicidal activity result is recorded as “very good (a very good herbicidal activity is given at values of at least 85)”.
With `CCOc1ccc(F)c(Nc2nc(N)nc(C(C)(C)F)n2)c1F` [Example 44], the herbicidal activity result in assay [4] (0.125 kg/ha) and in assay [1] (0.125 kg/ha) was “very good (a very good herbicidal activity is given at values of at least 85)” each time.
As for `CC=C(C)c1nc(N)nc(Nc2c(F)cccc2F)n1` [Example 124], the herbicidal activity entry in assay [4] (1000 g/ha), in assay [1] (1000 g/ha) and in assay [5] (1000 g/ha) was “very good (a very good herbicidal activity is given at values of at least 85)” throughout.
In the case of `CC(C)c1nc(N)nc(Nc2c(F)cccc2F)n1` [Example 66], the herbicidal activity entry in assay [1] (62.5 g/ha) is listed as “very good (a very good herbicidal activity is given at values of at least 85)”.
In the case of `CCC(C)(Cl)c1nc(N)nc(Nc2c(F)c(F)c(Br)c(F)c2F)n1` (centres unmarked) [Example 195], the herbicidal activity entry in assay [4] (500 g/ha) is “good (a good herbicidal activity is given at values of at least 70)”; in assay [1] (500 g/ha), “very good (a very good herbicidal activity is given at values of at least 85)”; in assay [5] (500 g/ha), “good (a good herbicidal activity is given at values of at least 70)”.
`Nc1nc(CF)nc(Nc2c(F)c(F)cc(F)c2F)n1` [Example 198]: the herbicidal activity entry in assay [1] (119 g/ha) is on record as “very good (a very good herbicidal activity is given at values of at least 85)”.
